According to patent US7985745B2, “Method for pain treatment” (Abbott Laboratories, priority 2006, dated 2011):

Tested on: osteoarthritis pain
Assay: MIA-induced knee joint osteoarthritis model, hind limb grip force
Type: in vivo, rat
Settings: grip force 20 days after MIA, % return to normalcy vs naïve group
Protocol: Unilateral knee joint osteoarthritis was induced in rats by a single intra-articular (i.a.) injection of sodium monoiodoacetate (MIA) (Sigma-Aldrich, St. Louis, Mo.) (3 mg in 50 ul sterile isotonic saline) into the right knee joint cavity under light (1-3%) isoflurane anesthesia.
Pain behavior was assessed by measurement of hind limb grip force (GF) in adult osteoarthritic rats. Following the unilateral injection of MIA (male Sprague Dawley, 325-350 g, tested at 20 days following MIA injection), a behavioral measure of activity-induced pain was carried out. Measurements of the peak hind limb grip force were conducted by recording the maximum compressive force (CFmax), in grams of force, exerted on a hind limb strain gauge setup, in a commercially available grip force measurement system (Columbus Instruments, Columbus, Ohio).
During testing, each rat was gently restrained by grasping it around its rib cage and then allowed to grasp the wire mesh frame attached to the strain gauge. The experimenter then moved the animal in a rostral-to-caudal direction until the grip was broken. Each rat was sequentially tested twice at approximately 2-3 min interval to obtain a raw mean grip force (CFmax). This raw mean grip force data was in turn converted to a maximum hindlimb cumulative compressive force (CFmax), as the grams of force/kg of body weight, for each animal.
For evaluating the compound effects, the hind limb grip force was conducted 20 days following the intra-articular injection of MIA. A group of age-matched naïve (not injected with MIA) animals was added as a comparator to the drug-dosed groups. The vehicle control response for each group of MIA-treated animals was defined as the 0% response (0% effect), whereas the naïve control group was defined as the normal response and as 100% effect. The % effects for each dose group was expressed as % return of response to normalcy, compared to the naïve group. That is, the % effect=(Treatment CFmax−Vehicle CFmax)/[…]]×100). All experiments evaluating drug effects in this model were conducted in a randomized blinded fashion.

With CN1CCN(C(=O)c2cc3cc(Cl)ccc3[nH]2)CC1 [Example 3, reference compound] the “% Effect” value (100 micromole/kg i.p.) was 21% and the “% Effect” value (250 micromole/kg i.p.) was 47%.
